These results are taken from article PMC3725577 (Bioorganic & medicinal chemistry letters, 2011).

One data set concerns HIV-1 NL4-3. The experiment in a line: Single round HIV infectivity in HeLa37 cells. It counts as cell-based.
A further data set deals with HeLa37 cells. The data set can be described thus: Cell viability. The format is cell-based. The following applies: concentrations as high as 100 µg/mL.

Entries after “also recorded” stand apart in the source; their conditions may differ.

As to `CC(=O)c1c(O)c2c(c(C(C)=O)c1O)OC(C)(C)CC2` [Compound 6, 6,8-diacetyl-2,2-dimethylchroman-5,7-diol], the “anti-HIV activity (in words)” value with HIV-1 NL4-3 was “least active”.

For the compound `CC1(C)CCc2c(O)c(C(=O)CC(=O)c3ccccc3)c(O)c(C=O)c2O1` [Compound 12, 6-(1,3-Dioxo-3-phenylpropyl)-2,2-dimethyl-8-formylchroman-5,7-diol], in the data set with HeLa37 cells, the “cytotoxicity (in words)” value is recorded as “highest cytotoxicity; also recorded: significant cytotoxicity at the higher concentrations tested”. The “anti-HIV activity (in words)” value in the data set with HIV-1 NL4-3 was “good activity”.
